Experiments:
Trypanosoma cruzi [1] = experiment: Antitrypanosomal activity against Trypanosoma cruzi Sylvio-X10/7 infected in BESM cells measured after 88 hrs postinfection by HTS assay; format: functional, organism-based; settings: Sylvio-X10/7, BESM
Trypanosoma cruzi [2] = experiment: Antitrypanosomal activity against Trypanosoma cruzi PSD-I infected in BESM cells measured after 88 hrs postinfection by HTS assay; format: functional, organism-based
Trypanosoma cruzi [3] = experiment: Antitrypanosomal activity against Trypanosoma cruzi CA-I/72 infected in BESM cells measured after 88 hrs postinfection by HTS assay; format: functional, organism-based; settings: CA-I/72, BESM
[4] = Cytotoxicity against BESM cells after 88 hrs by HTS assay; format: ADME, cell-based; settings: Bos taurus
Trypanosoma cruzi [5] = experiment: Antitrypanosomal activity against Trypanosoma cruzi amastigotes infected in BESM cells measured after 88 hrs postinfection by HTS assay; format: functional, organism-based
[6] = Selectivity window, ratio of EC50 for BESM cells to EC50 for Trypanosoma cruzi amastigotes infected in BESM cells; set-up: reference not given here

## CN1CCN(C(=O)N[C@@H](Cc2ccccc2)C(=O)N[C@H](/C=C/S(=O)(=O)c2ccccc2)CCc2ccccc2)CC1 [K-777]
Trypanosoma cruzi [1]
  EC50: 3 µM
Trypanosoma cruzi [2]
  EC50: 3 µM
Trypanosoma cruzi [3]
  EC50: 4.2 µM
[4]
  EC50: > 20 µM

## COc1ccccc1N1CCN(CC(O)COc2cccc3ccccc23)CC1 (stereo not given) [NAFTOPIDIL]
Trypanosoma cruzi [5]
  EC50: 11 µM
[6]
  Ratio EC50: 1.6
[4]
  EC50: 18 µM

## C=CCN1CC[C@]23c4c5ccc(O)c4O[C@H]2/C(=N/N=C2\CC[C@@]4(O)[C@H]6Cc7ccc(O)c8c7[C@@]4(CCN6CC=C)[C@H]2O8)CC[C@@]3(O)[C@H]1C5 [NALOXONAZINE]
Trypanosoma cruzi [5]
  EC50: 17 µM
[6]
  Ratio EC50: 0.9
[4]
  EC50: 16 µM

## CCc1nn(CCCN2CCN(c3cccc(Cl)c3)CC2)c(=O)n1CCOc1ccccc1 [NEFAZODONE]
Trypanosoma cruzi [5]
  EC50: 8 µM
[6]
  Ratio EC50: 1.9
[4]
  EC50: 15 µM

## O=C(N/N=C/c1ccc([N+](=O)[O-])o1)c1cc([N+](=O)[O-])cc([N+](=O)[O-])c1O [NIFURSOL]
Trypanosoma cruzi [5]
  EC50: 15 µM
[6]
  Ratio EC50: >3.3
[4]
  EC50: > 50 µM

## CC1CS(=O)(=O)CCN1/N=C/c1ccc([N+](=O)[O-])o1 (stereo not given) [NIFURTIMOX]
Trypanosoma cruzi [1]
  EC50: 0.7 µM
Trypanosoma cruzi [2]
  EC50: 2.1 µM
Trypanosoma cruzi [3]
  EC50: 1.2 µM
[4]
  EC50: > 10 µM

## NC(=O)N/N=C/c1ccc([N+](=O)[O-])o1 [NITROFURAZONE]
Trypanosoma cruzi [5]
  EC50: 8 µM
[6]
  Ratio EC50: >6.3
[4]
  EC50: > 50 µM

## C#C[C@]1(OC(C)=O)CC[C@H]2[C@@H]3CCC4=CC(=O)CC[C@@H]4[C@H]3CC[C@@]21C [NORETHINDRONE ACETATE]
Trypanosoma cruzi [5]
  EC50: 17 µM
[6]
  Ratio EC50: 1.6
[4]
  EC50: 28 µM

## OCCN1CCN(CCCN2c3ccccc3Sc3ccc(Cl)cc32)CC1 [PERPHENAZINE]
Trypanosoma cruzi [5]
  EC50: 5 µM
[6]
  Ratio EC50: 2.6
[4]
  EC50: 13 µM

## c1ccc2c(c1)Nc1ccccc1S2 [PHENOTHIAZINE]
Trypanosoma cruzi [5]
  EC50: 6 µM
[6]
  Ratio EC50: 4.3
[4]
  EC50: 26 µM

## CC[C@@H]([C@H](C)O)n1ncn(-c2ccc(N3CCN(c4ccc(OC[C@@H]5CO[C@@](Cn6cncn6)(c6ccc(F)cc6F)C5)cc4)CC3)cc2)c1=O [POSACONAZOLE]
Trypanosoma cruzi [1]
  EC50: 0.08 µM
Trypanosoma cruzi [2]
  EC50: 0.13 µM
Trypanosoma cruzi [3]
  EC50: 0.2 µM
[4]
  EC50: > 2 µM

## COc1cc2nc(N3CCN(C(=O)c4ccco4)CC3)nc(N)c2cc1OC [PRAZOSIN]
Trypanosoma cruzi [5]
  EC50: 12 µM
[6]
  Ratio EC50: 1.3
[4]
  EC50: 16 µM

## CN(C)CCCN1c2ccccc2Sc2ccccc21 [PROMAZINE]
Trypanosoma cruzi [5]
  EC50: 13 µM
[6]
  Ratio EC50: 2.5
[4]
  EC50: 33 µM

## O=C(c1ccc(OCCN2CCCCC2)cc1)c1c(-c2ccc(O)cc2)sc2cc(O)ccc12 [RALOXIFENE]
Trypanosoma cruzi [5]
  EC50: 10 µM
[6]
  Ratio EC50: 2.2
[4]
  EC50: 22 µM

## CC(C)CC(N(C)C)C1(c2ccc(Cl)cc2)CCC1 (stereo not given) [SIBUTRAMINE]
Trypanosoma cruzi [5]
  EC50: 8 µM
[6]
  Ratio EC50: 1.3
[4]
  EC50: 10 µM

## Nc1c2c(nc3ccccc13)CCCC2 [TACRINE]
Trypanosoma cruzi [5]
  EC50: 24 µM
[6]
  Ratio EC50: >2.1
[4]
  EC50: > 50 µM

## CC(C)N1CCN(c2ccc(OCC3COC(Cn4cncn4)(c4ccc(Cl)cc4Cl)O3)cc2)CC1 (stereo not given) [TERCONAZOLE]
Trypanosoma cruzi [5]
  EC50: < 0.4 µM
[6]
  Ratio EC50: >60
[4]
  EC50: 24 µM

## C[C@@H]1C[C@H]2[C@@H]3CCC4=CC(=O)C=C[C@]4(C)C3=CC[C@]2(C)[C@H]1C(=O)CN1CCN(c2cc(N3CCCC3)nc(N3CCCC3)n2)CC1 [TIRILAZAD]
Trypanosoma cruzi [5]
  EC50: 28 µM
[6]
  Ratio EC50: >1.8
[4]
  EC50: > 50 µM

## CCC1=C[C@@H]2CN(C1)Cc1c([nH]c3ccccc13)[C@@](C(=O)OC)(c1cc3c(cc1OC)N(C)[C@H]1[C@@](O)(C(=O)OC)[C@H](OC(C)=O)[C@]4(CC)C=CCN5CC[C@]31[C@@H]54)C2 [VINORELBINE]
Trypanosoma cruzi [5]
  EC50: 10 µM
[6]
  Ratio EC50: >5
[4]
  EC50: > 50 µM
